The record followed here is patent publication EP1803452A1, “ESTER DERIVATIVE AND PHARMACEUTICAL USE THEREOF” (Japan Tobacco, Inc., priority 2004, dated 2006).

Structures are written as SMILES.

Data set [1] is described as follows: Metabolic stability test in liver S9. It is filed as in vitro ADME. The conditions noted are these: pH 7.4, human liver S9 2 mg protein/mL, LC/MS; for remaining at 10 min: unchanged form after 10 minutes at 37°C, read-out: Remaining rate in human liver S9 (%/10min); for remaining at 1 h: unchanged form after 60 minutes at 37°C, read-out: Remaining rate in human liver S9 (%/60min). In a few lines: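 Compound from DMSO solution was incubated at 37°C with human liver S9 (final 2 mg protein/mL) in 100 mM potassium phosphate pH 7.4 with an NADPH-regenerating system for 0, 10 and 60 minutes. Reactions were stopped with acetonitrile/0.1% formic acid. Unchanged compound was measured by LC/MS as remaining rate (%) relative to zero time.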

Data set [2] in a line: Metabolic stability test in plasma. The settings on record: LC/MS; for remaining at 10 min: unchanged form after 10 minutes at 37°C in human plasma, read-out: Remaining rate in human plasma (%/10min); for remaining at 1 h: unchanged form after 60 minutes at 37°C in human plasma, read-out: Remaining rate in human plasma (%/60min). It counts as in vitro ADME, human. In a few lines: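 Remaining rate (%) versus zero time was derived from LC/MS measurement of parent compound after centrifugation. Plasma from human, mouse and hamster received DMSO-dissolved compound and was held at 37°C for 0, 10 or 60 minutes before acetonitrile containing formic acid (final 0.1%) stopped the reaction.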

Data set [3] in a line: Stability test in buffer (pH 7.4). It counts as physicochemical. The conditions noted are these: phosphate buffer/acetonitrile 7:3, 100 mM potassium phosphate buffer (pH 7.4) and acetonitrile 7:3 (v/v), LC/MS; for remaining at 10 min: 10 minutes at 37°C, read-out: Buf. remaining rate (%/10min); for remaining at 1 h: 60 minutes at 37°C, read-out: Buf. remaining rate (%/60min). The method in brief:
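Parent compound measured by LC/MS after 0, 10 or 60 min at 37°C in a 7:3 (v/v) mix of 100 mM potassium phosphate buffer and acetonitrile, with the reaction stopped by acetonitrile plus formic acid (final 0.1%). Percentage remaining is expressed relative to the zero-time amount.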

As for `CCc1cc(C(=O)OC)cc(C(=O)OC)c1OC(=O)CCCc1ccc(NC(=O)c2ccc(C)nc2-c2ccc(C(F)(F)F)cc2)c(C(=O)N(C)C)c1` [Compound 1-51, 4-[4-(3-dimethylcarbamoyl-4-([6-methyl-2-(4-trifluoromethylphenyl)pyridine-3-carbonyl]amino}phenyl)butyryloxy]-5-ethylisophthalic acid dimethyl ester], the remaining at 10 min was determined as 8% in data set [1], 23% in data set [2] and 98% in data set [3]. Moreover, the figures for the remaining at 1 h in data set [1], in data set [2] and in data set [3] were 3%, 0% and 101%, respectively.
With `COC(=O)c1ccc(OC(=O)CCCc2ccc(NC(=O)c3ccccc3-c3ccc(C(=O)OC)cc3)c(C(=O)N(C)C)c2)cc1` [Compound 4-3, 2'-{2-dimethylcarbamoyl-4-[3-(4-methoxycarbonylphenoxycarbonyl)propyl]phenylcarbamoyl}biphenyl-4-carboxylic acid methyl ester], the remaining at 10 min was determined as 1% in data set [1], 0% in data set [2] and 101% in data set [3]. The figures for the remaining at 1 h in data set [1], in data set [2] and in data set [3] were 0%, 0% and 102%, respectively.
With `COC(=O)c1ccc(OC(=O)CCCc2ccc(NC(=O)c3ccccc3-c3ccc(C(F)(F)F)cc3)c(C(=O)N(C)C)c2)c(C(F)(F)F)c1` [Compound 1-20, 4-(4-{3-dimethylcarbamoyl-4-[(4'-trifluoromethylbiphenyl-2-carbonyl)amino]phenyl}butyryloxy)-3-trifluoromethylbenzoic acid methyl ester], the remaining at 10 min is 0% in data set [1], 0% in data set [2] and 102% in data set [3]. Besides, the remaining at 1 h in data set [1] turned out to be 0%; in data set [2] it was 0%; in data set [3], 99%.
On to `COC(=O)c1cc(C)c(OC(=O)CCCc2ccc(NC(=O)c3ccc(C)nc3-c3ccc(C(F)(F)F)cc3)c(C(=O)N(C)C)c2)c(F)c1` [Compound 1-41, 4-[4-(3-dimethylcarbamoyl-4-{[6-methyl-2-(4-trifluoromethylphenyl)pyridine-3-carbonyl]amino}phenyl)butyryloxy]-3-fluoro-5-methylbenzoic acid methyl ester], for which the remaining at 10 min amounted to 4% in data set [1], 37% in data set [2] and 103% in data set [3]. Moreover, the remaining at 1 h in data set [1] amounted to 0%; in data set [2], 0%; in data set [3] it was 106%.
With `CN(C)C(=O)c1cc(CCCC(=O)Oc2ccc(C(=O)OCc3ccc(Cl)cc3)cc2)ccc1NC(=O)c1ccccc1-c1ccc(C(F)(F)F)cc1` [Compound 1-79, 4-[4-(3-dimethylcarbamoyl-4-{(4'-trifluoromethylbiphenyl-2-carbonyl)amino}phenyl)butyryloxy]benzoic acid 4-chlorobenzyl ester], the remaining at 10 min in data set [1] was found to be 20%; in data set [2], 0%; in data set [3], 96%. For the same compound, the remaining at 1 h was 4% in data set [1], 0% in data set [2] and 95% in data set [3].
Take `COC(=O)c1ccc(OC(=O)CCCc2ccc(NC(=O)c3ccncc3-c3ccc(C(F)(F)F)cc3)c(C(=O)N(C)C)c2)cc1` [Compound 1-30, 4-[4-(3-dimethylcarbamoyl-4-{[3-(4-trifluoromethylphenyl)pyridine-4-carbonyl]amino}phenyl)butyryloxy]benzoic acid methyl ester]: the remaining at 10 min in data set [1] was 0%; in data set [2], 0%; in data set [3], 99%. Besides, the remaining at 1 h in data set [1] stood at 0%; in data set [2], 0%; in data set [3] it was 99%.
`CC(=O)NCCOC(=O)c1ccc(OC(=O)CCCc2ccc(NC(=O)c3ccccc3-c3ccc(C(F)(F)F)cc3)c(C(=O)N(C)C)c2)cc1` [Compound 1-77, 4-[4-(3-dimethylcarbamoyl-4-{(4'-trifluoromethylbiphenyl-2-carbonyl)amino}phenyl)butyryloxy]benzoic acid 2-acetylaminoethyl ester]: the remaining at 10 min in data set [1] is 0%; in data set [2], 59%; in data set [3], 99%. Further, the remaining at 1 h in data set [1] worked out at 0%; in data set [2], 2%; in data set [3] it was 100%.
As for `COC(=O)c1ccc(OC(=O)CCCc2ccc(NC(=O)c3ccc(C)nc3-c3ccc(C(F)(F)F)cc3)c(C(=O)N(C)C)c2)cc1` [Compound 1-13, 4-[4-(3-dimethylcarbamoyl-4-{[6-methyl-2-(4-trufluoromethylphenyl)pyridine-3-carbonyl]amino}phenyl)butyryloxy)benzoic acid methyl ester], the remaining at 10 min came out at 0% in data set [1], 24% in data set [2] and 95% in data set [3]. In addition, the remaining at 1 h worked out at 0% in data set [1], 0% in data set [2] and 97% in data set [3].
Turning to `COC(=O)c1cc(OC)c(OC(=O)CCCc2ccc(NC(=O)c3ccc(C)nc3-c3ccc(C(F)(F)F)cc3)c(C(=O)N(C)C)c2)c(C(F)(F)F)c1` [Compound 1-47, 4-[4-(3-dimethylcarbamoyl-4-{[6-methyl-2-(4-trifluoromethylphenyl)pyridine-3-carbonyl]amino}phenyl)butyryloxy]-3-methoxy-5-trifluoromethylbenzoic acid methyl ester], the figures for the remaining at 10 min in data set [1], in data set [2] and in data set [3] were 14%, 0% and 96%, respectively. Also, the remaining at 1 h in data set [1] was 0%; in data set [2], 0%; in data set [3], 97%.
For the compound `CN(C)C(=O)c1cc(CCCC(=O)Oc2ccc(C(=O)OCc3ccncc3)cc2)ccc1NC(=O)c1ccccc1-c1ccc(C(F)(F)F)cc1` [Compound 1-84, 4-[4-(3-dimethylcarbamoyl-4-{(4'-trifluoromethylbiphenyl-2-carbonyl)amino}phenyl)butyryloxy]benzoic acid pyridin-4-ylmethyl ester], the remaining at 10 min is 1% in data set [1], 21% in data set [2] and 99% in data set [3]. Moreover, the values for the remaining at 1 h in data set [1], in data set [2] and in data set [3] were 0%, 0% and 101%, respectively.
As to `CC(C)OC(=O)COC(=O)c1ccc(OC(=O)CCCc2ccc(NC(=O)c3ccccc3-c3ccc(C(F)(F)F)cc3)c(C(=O)N(C)C)c2)cc1` [Compound 1-102, 4-[4-(3-dimethylcarbamoyl-4-{(4'-trifluoromethylbiphenyl-2-carbonyl)amino}phenyl)butyryloxy]benzoic acid isopropoxycarbonylmethyl ester], the remaining at 10 min in data set [1] is 0%; in data set [2], 46%; in data set [3], 98%. Further, the remaining at 1 h is 0% in data set [1], 0% in data set [2] and 101% in data set [3].
Regarding `COC(=O)c1cc(C)c(OC(=O)CCCc2ccc(NC(=O)c3ccc(C)nc3-c3ccc(C(F)(F)F)cc3)c(C(=O)N(C)C)c2)c(OC)c1` [Compound 1-46, 4-[4-(3-dimethylcarbamoyl-4-{[6-methyl-2-(4-trifluoromethylphenyl)pyridine-3-carbonyl]amino}phenyl)butyryloxy]-3-methoxy-5-methylbenzoic acid methyl ester], the remaining at 10 min in data set [1] stood at 5%; in data set [2], 39%; in data set [3], 99%. Also, the remaining at 1 h in data set [1] turned out to be 2%; in data set [2] it was 0%; in data set [3], 102%.
Take `COC(=O)c1ccc(OC(=O)C2CCN(c3ccc(NC(=O)c4ccccc4-c4ccc(C(F)(F)F)cc4)c(C(=O)N(C)C)c3)CC2)c(F)c1` [Compound 3-2, 1-{3-dimethylcarbamoyl-4-[(4'-trifluoromethylbiphenyl-2-carbonyl)amino]phenyl}piperidine-4-carboxylic acid 2-fluoro-4-methoxycarbonylphenyl ester]: the remaining at 10 min in data set [1] came out at 2%; in data set [2], 24%; in data set [3] it was 94%. Besides, the remaining at 1 h was found to be 0% in data set [1], 0% in data set [2] and 97% in data set [3].
Turning to `CCOC(=O)c1ccc(OC(=O)CCCc2ccc(NC(=O)c3ccccc3-c3ccc(C(F)(F)F)cc3)c(C(=O)N3CCCC3)c2)c(F)c1` [Compound 1-16, 3-fluoro-4-(4-{3-(pyrrolidine-1-carbonyl)-4-[(4'-trifluoromethylbiphenyl-2-carbonyl)amino]phenyl)butyryloxy)benzoic acid ethyl ester], the figures for the remaining at 10 min in data set [1], in data set [2] and in data set [3] were 2%, 3% and 98%, respectively. The remaining at 1 h in data set [1] is 0%; in data set [2] it was 0%; in data set [3], 103%.
